Values of other authors in US20220175718A1, “TRANSDERMAL PHARMACEUTICAL FORMULATIONS FOR THE TREATMENT OF CANCER” (PIKE THERAPEUTICS, INC., priority 2020, published 2022).

What was measured:
CB2 = CB2 (Homo sapiens, UniProt P34972); details: for selectivity for CB2 over CB1: given as ×, fold or times
CB1 = CB1 (Homo sapiens, UniProt P21554)
Chain of CB1 (P21554 whole entry, species assumed): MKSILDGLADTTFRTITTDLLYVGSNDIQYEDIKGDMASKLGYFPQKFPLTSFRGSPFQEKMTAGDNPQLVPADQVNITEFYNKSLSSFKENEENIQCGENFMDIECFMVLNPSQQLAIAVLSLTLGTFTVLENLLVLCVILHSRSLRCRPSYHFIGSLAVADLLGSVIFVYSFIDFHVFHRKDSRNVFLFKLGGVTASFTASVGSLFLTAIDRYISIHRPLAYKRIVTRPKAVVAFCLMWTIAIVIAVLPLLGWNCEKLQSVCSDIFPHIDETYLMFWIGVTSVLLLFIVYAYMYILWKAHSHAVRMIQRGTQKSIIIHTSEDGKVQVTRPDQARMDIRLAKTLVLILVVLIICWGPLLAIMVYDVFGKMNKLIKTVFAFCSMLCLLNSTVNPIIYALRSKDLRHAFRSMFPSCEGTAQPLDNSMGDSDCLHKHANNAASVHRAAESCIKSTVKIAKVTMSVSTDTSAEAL

Chain of CB2 (P34972 whole entry, species assumed): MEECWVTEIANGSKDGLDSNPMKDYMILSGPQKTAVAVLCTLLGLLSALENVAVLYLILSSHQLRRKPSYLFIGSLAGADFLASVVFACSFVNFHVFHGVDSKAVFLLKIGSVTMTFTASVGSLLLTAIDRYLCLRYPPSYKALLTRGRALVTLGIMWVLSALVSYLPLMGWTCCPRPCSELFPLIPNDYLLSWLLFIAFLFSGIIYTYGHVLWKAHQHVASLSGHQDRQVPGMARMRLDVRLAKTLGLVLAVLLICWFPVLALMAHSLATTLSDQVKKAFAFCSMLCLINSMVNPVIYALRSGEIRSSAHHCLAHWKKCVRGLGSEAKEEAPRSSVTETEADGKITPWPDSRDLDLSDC

Structure (SMILES) | selectivity for CB2 over CB1 (CB2) | Ki (CB2) [nM] | Ki (CB1) [nM]
CCCCCCC(C)(C)c1cc(OC)c2c(c1)OC(C)(C)C1CCC(O)CC21 (stereo not drawn) [JWH-350, 11-nor-1-methoxy-3-(1′,1′-dimethylheptyl)-9α-hydroxyhexahydrocannabinol] | 33 |  | 
CCCCCn1cc(C(=O)c2cccc3cccc(Br)c23)c2ccccc21 [JWH-424] |  | 5.44 | 20.9
CCCn1cc(C(=O)c2ccc(C)c3ccccc23)c2ccccc21 [JWH-120] | 173 |  | 
CCCn1c(C)c(C(=O)c2ccc(C)c3ccccc23)c2ccccc21 [JWH-148] | more than 8 |  | 
CCCCCCC(C)(C)c1cc(O)c2c(c1)oc(=O)c1ccc(OC)cc12 [AM-1710] | 54 |  | 
CCCCCn1cc(C(=O)c2ccc(Cl)c3ccccc23)c2ccccc21 [JWH-398] |  | 2.8 | 2.3
